Test results published in patent publication US8536120B2 (The Administrators of The Tulane Educational Fund, priority 2006, dated 2013).
Values joined by “and” are separate entries in the source; they are usually repeats but may differ in a detail not shown here. Equal values may be shown once. Blank lines part the entries; values can stand above or below the compound they belong to. Where a SMILES comes first, the peptide text is derived from it. Where no end group is shown, it is not given here. [ ]: non-standard residue; d: D form. dTrp(2-Me) = Cc1[nH]c2ccccc2c1C[C@@H](N)C(=O)O; d2Nal = N[C@H](Cc1ccc2ccccc2c1)C(=O)O

Columns and labels:
[1] = target: T1, Ghrelin/GHRP/GHS Receptor (Rattus norvegicus, UniProt O08725); experiment: In vitro cell culture method: GH release from cell culture of pituitary cells, peptide alone or plus stimulator; type: cell-based; parameters: from cell culture of pituitary cells; endogenous in cells; host or cells: dispersed primary rat anterior pituitary cells, 4 days in culture; settings: for GH release, first line of entry (mark P + S): stimulator 1 ng/ml; for Unstimulated Basal GH release: Table 8
T1 sequence (O08725 whole entry): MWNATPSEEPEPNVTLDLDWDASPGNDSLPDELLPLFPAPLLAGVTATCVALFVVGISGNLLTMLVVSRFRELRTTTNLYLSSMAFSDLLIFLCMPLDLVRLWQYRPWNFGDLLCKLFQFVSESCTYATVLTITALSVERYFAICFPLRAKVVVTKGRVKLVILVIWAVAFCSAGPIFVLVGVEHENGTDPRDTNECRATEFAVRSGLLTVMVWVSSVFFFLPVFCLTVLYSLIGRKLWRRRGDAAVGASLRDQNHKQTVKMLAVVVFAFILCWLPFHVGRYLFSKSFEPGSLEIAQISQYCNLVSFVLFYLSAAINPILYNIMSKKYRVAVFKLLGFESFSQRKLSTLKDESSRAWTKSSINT
Method: (§1) The peptides were synthesized by the solid phase method and purified by HPLC. GH was determined by Radioimmunoassay (RIA).
In vitro GH Release-Female rats of the CD-1 strain were housed in a constant temperature room at 24° C. with 14 h light and 10 h darkness. The rats were fed Purina Rat chow and water at libitum. All studies were started between 0800-1000 hours. Pituitaries of mature female Sprague Dawley rats were rapidly removed after decapitation, neurointermediate lobe discarded and then placed in a pH 7.4 buffer. The pituitaries were cut into ˜3-mm pieces and then transferred to a flask containing HEPS buffer with trypsin and incubated at 37° C. Cells were triturated several times during this period. After dispersion, the cells were collected by centrifugation, wash with DMEM and placed into culture well. Cell cultures were maintained for 4 days at 37° with 8% CO2 added to the incubator atmosphere. After 4 days in culture, cells were washed with lactated Ringer's solution adjusted to pH 7.2-7.4 and then vehicle, peptide alone or peptide plus stimulator was added to media. Incubation time was 60-120 minutes after which media was removed from each well for GH determination. The GH RIA reagents were distributed by the NIH. Control data was collected from cell cultures treated with only the corresponding vehicle in the absence of peptide or stimulator. Control stimulated data was collected from cell cultures treated with stimulator alone in the absence of any peptide.

[2] = target: T2, human ghrelin receptor type 1a (GHS-R1a) (Homo sapiens, UniProt Q92847); experiment: Receptor binding: displacement of radiolabelled ghrelin on membranes of HEK-293 cells; settings: read-out: binding affinities (Ki)
T2 construct: expressed in transfected cells; host or cells: HEK-293 cells (membranes)
T2 sequence (Q92847 whole entry): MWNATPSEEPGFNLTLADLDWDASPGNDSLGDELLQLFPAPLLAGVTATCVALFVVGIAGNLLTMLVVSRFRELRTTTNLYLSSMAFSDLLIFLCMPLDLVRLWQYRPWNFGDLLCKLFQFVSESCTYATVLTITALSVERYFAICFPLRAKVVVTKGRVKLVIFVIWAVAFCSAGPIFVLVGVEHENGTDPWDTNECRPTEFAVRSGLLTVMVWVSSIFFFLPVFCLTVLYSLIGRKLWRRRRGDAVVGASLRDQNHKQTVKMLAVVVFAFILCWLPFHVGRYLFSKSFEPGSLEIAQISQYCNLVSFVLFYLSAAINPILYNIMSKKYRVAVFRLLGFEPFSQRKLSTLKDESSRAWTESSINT

[3] = target: T3, ghrelin receptor (Rattus norvegicus, UniProt O08725); experiment: Spontaneous food intake in overnight-fasted rats after icv GHS-A; type: in vivo; settings: 5 μg GHS-A icv; overnight-fasted animals; P<0.004 vs normal saline
T3 construct: from tissue; host or cells: whole animal (rat), i.c.v. or i.v. dosing
T3 sequence (O08725 whole entry): as the sequence (O08725 whole entry) above
Method: (§2) Adult male Sprague Dawley rats (225-260 g) were purchased from Charles River Canada (St. Constant, Canada) and individually housed on a 12-h light, 12-h dark cycle (lights on, 0600-1800 h) in a temperature (22±1° C.)—and humidity-controlled room. Purina rat chow (Ralston Purina Co., St. Louis, Mo.) and tap water were available ad libitum.
Chronic intracerebroventricular (i.c.v.) and intracardiac venous cannulas were implanted under sodium pentobarbital (50 mg/kg, i.p.) anesthesia using previously described techniques in (2) and (11). […]
The effects of the GHS-A on both spontaneous and ghrelin-induced food intake and body weight gain were investigated. […] Food intake was monitored on an hourly basis for 5 h after the initial injection (until 1600 h) and subsequently overnight (1600-0900 h next morning). A measured amount of rat chow pellets was placed in the cage every hour. Spillage was collected by placement of a diaper under the rat cages, and total food consumed for each period was calculated by subtracting uneaten food plus spillage from total given. Body weights were recorded daily at 0900 h. The latency to the onset of the first meal after the injection and the duration of that meal were also monitored.

[4] = target: T3, ghrelin receptor; experiment: Spontaneous pulsatile GH secretion in free-moving rats after icv GHS-A; type: in vivo; settings: 5 μg GHS-A icv; vs normal saline; P<0.01 or less
Method: as §2
(§3) Chronic intracerebroventricular (i.c.v.) and intracardiac venous cannulas were implanted under sodium pentobarbital (50 mg/kg, i.p.) anesthesia using previously described techniques in (2) and (11). The placement of the icv cannulae was verified by both a positive drinking response to i.c.v. carbachol (100 ng/10 μl) injection on the day after surgery and methylene blue dye at the time of death. After surgery, the rats were placed directly in isolation test chambers with food and H2O freely available until body weight returned to preoperative levels (usually within 5-7 d). During this time the rats were handled daily to minimize any stress associated with handling on the day of the experiment. On the test day, food was removed 1.5 h before the start of sampling and was returned at the end.
These time points were chosen because they correspond closely to the time of onset of the spontaneous GH secretory episodes, as previously documented in our laboratory (2, 4). […]

[5] = target: T3, ghrelin receptor; experiment: Ghrelin-induced GH release in free-moving adult male rats after GHS-A pretreatment (icv or iv); type: in vivo; settings: vs normal saline; for Plasma GH response to ghrelin i.c.v.: 5 μg antagonist icv 15 min before 500 ng ghrelin icv
Method: as §2, §3
The efficacy of GHS-A to antagonize ghrelin's stimulatory action on GH at both central and peripheral sites was examined. […] (500 ng). Both the human ghrelin peptide (provided by Dr. K. Chang, Phoenix Pharmaceuticals, Inc., Belmont, Calif.) and the GHS-A were diluted in normal saline just before use. Blood samples (0.35 ml) were withdrawn every 15 min over a 6-h sampling period (1000-1600 h) from all animals. […] All blood samples were immediately centrifuged, and plasma was separated and stored at −20° C. for subsequent assay of GH. To avoid hemodynamic disturbance, the red blood cells were resuspended in normal saline and returned to the animal after removal of the next blood sample.
Blood samples were withdrawn from 1000-1600 h, as described above.

[6] = target: T3, ghrelin receptor; experiment: Ghrelin-stimulated food intake in rats after icv GHS-A; type: in vivo; settings: 500 ng ghrelin icv, vs normal saline
Method: as §2, §3
Food intake was monitored on an hourly basis as described above. In this experiment, food was removed 1.5 h before the start of the test.

[7] = target: T1, Ghrelin/GHRP/GHS Receptor; experiment: In vivo assay of GH release in rat, i.v. peptide alone or plus stimulator, serum GH by RIA
Method: as §1
For the in vivo assay of GH Release in rat, immature female Sprague Dawley rats were obtained from Charles River from Wilmington, Mass. After arrival they were housed at 25° C. with a 14:10 h light:dark cycle. Water and Purina rat chow were available at libitum. Pups were weaned at 21 days of age.
Immature twenty six day old female Sprague Dawley rats, 3-6 rats per treatment dose, were pretreated with pentobarbital 20 minutes before iv injection of vehicle/peptide or peptide plus stimulator. Injection was made as a 0.1 ml solution. For the non-pentobarbital treated rat assay, peptides were administered iv into the tail vein of conscious rats. All animals were sacrificed by guillotine after iv peptide or vehicle. Trunk blood was collected at +10-15 minutes […], allowed to clot, centrifuged and serum stored until assayed for GH levels by RIA. The GH RIA reagents were distributed by the NIH. Control data was collected from rats treated with only the corresponding vehicle in the absence of peptide or stimulator. Control stimulated data was collected from rats treated with stimulator alone in the absence of any peptide.

GH release, second line of entry (no mark) ([1]; Table 10, 10 μg/ml): 480 ± 9 ng/mL
GH release, first line of entry (mark P + S) ([1]; Table 10, 10 μg/ml): 373 ± 2 ng/mL
GH release, second line of entry (no mark) ([1]; Table 10, 30 μg/ml): 223 ± 22 ng/mL
GH release, first line of entry (mark P + S) ([1]; Table 10, 30 μg/ml): 176 ± 11 ng/mL
Compound: CCOC(=O)c1cc2ccccc2cc1C(=O)N1CCC(c2ccccc2OC)CC1 [ethyl 3-(4-(2-methoxyphenyl)piperidine-1-carbonyl)-2-naphthoate]

Ki [2]: 590 pM
Compound: Cc1[nH]c2ccccc2c1C[C@@H](NC(=O)[C@@H](N)Cc1cnc[nH]1)C(=O)N[C@@H](C)C(=O)N[C@@H](Cc1c[nH]c2ccccc12)C(=O)N[C@H](Cc1ccccc1)C(=O)N[C@@H](CCCCN)C(N)=O [hexarelin] (H-H[dTrp(2-Me)]AW[dF]K-NH2)

GH release, second line of entry (no mark) ([1]; Table 11, 10 μg/ml): 1149 ± 33 ng/mL
GH release, first line of entry (mark P + S) ([1]; Table 11, 10 μg/ml): 754 ± 32 ng/mL
GH release, second line of entry (no mark) ([1]; Table 11, 30 μg/ml): 886 ± 29 ng/mL
GH release, first line of entry (mark P + S) ([1]; Table 11, 30 μg/ml): 498 ± 26 ng/mL
Compound: COC(=O)c1cc2ccccc2cc1C(=O)Nc1ccc(C)cc1 [methyl 3-(p-tolylcarbamoyl)-2-naphthoate]

GH release, second line of entry (no mark) ([1]; Table 10, 1 μg/ml): 654 ± 18 ng/mL
GH release, first line of entry (mark P + S) ([1]; Table 10, 1 μg/ml): 338 ± 3 ng/mL
GH release, second line of entry (no mark) ([1]; Table 10, 3 μg/ml): 442 ± 4 ng/mL
GH release, first line of entry (mark P + S) ([1]; Table 10, 3 μg/ml): 204 ± 10 ng/mL
GH release, second line of entry (no mark) ([1]; Table 10, 10 μg/ml): 537 ± 28 ng/mL and 648 ± 16 ng/mL
GH release, first line of entry (mark P + S) ([1]; Table 10, 10 μg/ml): 262 ± 4 ng/mL and 136 ± 11 ng/mL
GH release, second line of entry (no mark) ([1]; Table 10, 30 μg/ml): 309 ± 46 ng/mL
GH release, first line of entry (mark P + S) ([1]; Table 10, 30 μg/ml): 118 ± 8 ng/mL
Compound: COc1ccccc1N1CCN(C(=O)c2cc3ccccc3cc2C(=O)N2CCN(c3ccccc3OC)CC2)CC1 [naphthalene-2,3-diylbis((4-(2-methoxyphenyl)piperazin-1-yl)methanone)]

GH release, second line of entry (no mark) ([1]; Table 10, 10 μg/ml): 878 ± 30 ng/mL
GH release, first line of entry (mark P + S) ([1]; Table 10, 10 μg/ml): 777 ± 34 ng/mL
GH release, second line of entry (no mark) ([1]; Table 10, 30 μg/ml): 510 ± 15 ng/mL
GH release, first line of entry (mark P + S) ([1]; Table 10, 30 μg/ml): 499 ± 18 ng/mL
Compound: CC(C)(N)C(=O)N[C@H](COCc1ccccc1)C(=O)N1CCN(c2ccccc2)CC1 [αAibDSer(BZL)-N′-phenyl-N-piperazinamide, (R)-2-amino-N-(3-(benzyloxy)-1-oxo-1-(4-phenylpiperazin-1-yl)propan-2-yl)-2-methylpropanamide]

Second part, the compound before the results:

Compound: DAla-DcyclohexylAla-Ala-Ala-Phe-DPhe-Nle-NH2
Unstimulated Basal GH release ([1]; peptide 1 μg/ml): 286 ± 75 ng/mL
Unstimulated Basal GH release ([1]; peptide 3 μg/ml): 177 ± 44 ng/mL
Unstimulated Basal GH release ([1]; peptide 10 μg/ml): 271 ± 38 ng/mL
Unstimulated Basal GH release ([1]; peptide 30 μg/ml): 376 ± 28 ng/mL

Compound: H[d2Nal][dK]W[dF]K-NH2
Spontaneous food intake in the first hour after injection [3]: significantly inhibited
1-h GH AUC's of spontaneous GH secretory episodes at 1100 h and 1400 h, and overall 6-h GH AUC [4]: significantly reduced
Plasma GH response to ghrelin i.c.v. [5]: virtually obliterated the GH response to ghrelin
Plasma GH response to ghrelin i.c.v. ([5]; listed as GHS-A): abolished the stimulatory action of ghrelin on GH release
Plasma GH response to ghrelin i.v. ([5]; 250 μg antagonist iv 15 min before 5 μg ghrelin iv, listed as GHS-A): strongly blocked ghrelin's ability to release GH
Reduction of GH AUC following i.c.v. ghrelin ([5]; GHS-A icv pretreatment, 500 ng ghrelin icv, P<0.0003 or less): 15 fold
Reduction of GH AUC following i.v. ghrelin ([5]; GHS-A iv pretreatment, 5 μg ghrelin iv, P<0.0003 or less): 5 fold
Cumulative food intake after ghrelin ([6]; 5 μg GHS-A icv): significantly suppressed for up to 5 h
Ghrelin-stimulated food intake in the first hour after injections ([6]; 5 μg antagonist icv, P<0.02 or less): significantly inhibited

Compound: [dA][d2Nal]AW[dF]K-NH2 [reference compound]
Stimulated Control GH release ([1]; Table 6, stimulator DAla-DβNal-Ala-Trp-DPhe-Lys-NH2 alone 10 ng/ml): 2420 ± 0 ng/mL and 2811 ± 229 ng/mL and 2385 ± 8 ng/mL
Stimulated Control GH release ([1]; Table 9, stimulator DAla-DβNal-Ala-Trp-DPhe-Lys-NH2 alone 1 ng/ml): 1232 ± 34 ng/mL
Stimulated Control GH release ([1]; Table 10, stimulator DAla-DβNal-Ala-Trp-DPhe-Lys-NH2 alone 1 ng/ml): 905 ± 6 ng/mL and 1153 ± 36 ng/mL and 1216 ± 26 ng/mL and 1461 ± 58 ng/mL and 1016 ± 18 ng/mL and 859 ± 4 ng/mL and 1060 ± 24 ng/mL
Stimulated Control GH release ([1]; Table 11, stimulator DAla-DβNal-Ala-Trp-DPhe-Lys-NH2 alone 1 ng/ml): 905 ± 6 ng/mL and 947 ± 11 ng/mL and 947 ± 33 ng/mL and 1016 ± 18 ng/mL
Stimulated Control GH ([7]; Table 2, stimulator DAla-DβNal-Ala-Trp-DPhe-Lys-NH2 alone 0.3 μg, rat): 2253 ± 252 ng/mL and 1412 ± 400 ng/mL
Stimulated Control GH ([7]; Table 2, stimulator DAla-DβNal-Ala-Trp-DPhe-Lys-NH2 alone 1 μg, rat): 3214 ± 276 ng/mL and 3105 ± 429 ng/mL and 2406 ± 288 ng/mL and 2825 ± 134 ng/mL and 3104 ± 429 ng/mL
Stimulated Control GH ([7]; Table 4, Non-Pentobarbital Rats, stimulator DAla-DβNal-Ala-Trp-DPhe-Lys-NH2 alone 10 μg): 72 ± 9 ng/mL
Stimulated Control GH ([7]; Table 4, Pentobarbital Rats, stimulator DAla-DβNal-Ala-Trp-DPhe-Lys-NH2 alone 1 μg): 4950 ± 98 ng/mL

Compound: [dA][d2Nal][dK][dW]FK-NH2
Stimulated GH release (P + S) ([7]; Table 4, Pentobarbital Rats, peptide 30 μg i.v. + stimulator DAla-DβNal-Ala-Trp-DPhe-Lys-NH2 1 μg): 2884 ± 828 ng/mL
